A short description of data set [1]: Permeability across apical to basolateral in MDCK1 cells. Conditions: dog, MDCK; read-out: permeability. It is filed as ADME, cell-based, Canis lupus familiaris.
Data set [2] is described as follows: Clearance in human liver microsomes at 1 uM incubated up to 60 mins by LC-MS/MS method. It is filed as ADME, microsome. For orientation: Microsomes from liver hold many membrane-bound enzymes, among them those of drug oxidation.
The nature of data set [3]: Clearance in human hepatocytes at 1 uM incubated up to 60 mins by LC-MS/MS method. It is filed as ADME, cell-based, Hepatocyte.
Data set [4] concerns the target T1, Tyrosine-protein kinase BTK (Homo sapiens, UniProt Q06187).
Description: Inhibition of BTK in human whole blood-derived CD19+ B cells assessed as suppression of anti-IgM stimulated-CD69 expression preincubated for 1 hr followed by IgM stimulation for 18 hrs by FACS analysis
A further data set can be described thus: physchem. Conditions: buffer, pH 7.4.
The next data set can be described thus: in vitro. As to conditions: dog, MDCK.
The next data set concerns the target ERBB2 (Homo sapiens, UniProt P04626). Kind of data set: Inhibition of recombinant human cytoplasmic His-tagged ERBB2 expressed in baculovirus at 1 uM by Z'-LYTE assay.
The target in the next data set is T2, TXK (Homo sapiens, UniProt P42681).
T2 sequence (P42681 whole entry): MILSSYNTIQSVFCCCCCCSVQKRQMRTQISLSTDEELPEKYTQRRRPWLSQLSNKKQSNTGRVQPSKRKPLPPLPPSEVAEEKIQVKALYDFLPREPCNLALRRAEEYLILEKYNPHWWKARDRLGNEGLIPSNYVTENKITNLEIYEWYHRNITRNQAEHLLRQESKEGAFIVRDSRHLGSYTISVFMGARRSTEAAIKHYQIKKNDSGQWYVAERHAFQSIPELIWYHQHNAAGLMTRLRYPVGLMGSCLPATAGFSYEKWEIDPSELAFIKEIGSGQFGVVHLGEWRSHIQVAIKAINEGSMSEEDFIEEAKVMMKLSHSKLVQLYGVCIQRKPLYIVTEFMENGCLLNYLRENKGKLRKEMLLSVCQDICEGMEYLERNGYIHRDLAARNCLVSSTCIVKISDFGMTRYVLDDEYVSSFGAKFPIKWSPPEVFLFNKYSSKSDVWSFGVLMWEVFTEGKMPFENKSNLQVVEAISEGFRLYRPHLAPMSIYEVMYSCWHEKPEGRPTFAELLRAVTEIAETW
Kind of data set: Inhibition of human full length GST-tagged TXK expressed in baculovirus at 1 uM by Z'-LYTE assay.

Another data set deals with BLK (Homo sapiens, UniProt P51451). Kind of data set: Inhibition of recombinant human full length His-tagged BLK expressed in baculovirus at 1 uM by Z'-LYTE assay.
Sequence of BLK (P51451 whole entry): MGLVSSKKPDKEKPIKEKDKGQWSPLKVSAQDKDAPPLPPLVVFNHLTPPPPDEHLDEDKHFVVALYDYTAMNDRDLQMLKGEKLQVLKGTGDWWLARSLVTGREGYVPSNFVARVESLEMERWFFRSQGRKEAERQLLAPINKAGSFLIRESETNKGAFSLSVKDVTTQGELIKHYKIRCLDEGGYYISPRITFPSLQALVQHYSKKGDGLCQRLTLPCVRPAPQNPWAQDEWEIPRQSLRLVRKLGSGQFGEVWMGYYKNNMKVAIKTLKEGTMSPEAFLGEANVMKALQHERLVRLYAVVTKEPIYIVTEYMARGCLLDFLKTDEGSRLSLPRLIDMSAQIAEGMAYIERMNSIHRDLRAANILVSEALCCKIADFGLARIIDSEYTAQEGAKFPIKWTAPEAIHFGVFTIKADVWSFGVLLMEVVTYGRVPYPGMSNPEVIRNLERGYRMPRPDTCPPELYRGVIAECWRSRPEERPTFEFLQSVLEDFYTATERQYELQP
In another data set the target is T3, JAK3 (Homo sapiens, UniProt P52333).
T3 sequence (P52333 whole entry): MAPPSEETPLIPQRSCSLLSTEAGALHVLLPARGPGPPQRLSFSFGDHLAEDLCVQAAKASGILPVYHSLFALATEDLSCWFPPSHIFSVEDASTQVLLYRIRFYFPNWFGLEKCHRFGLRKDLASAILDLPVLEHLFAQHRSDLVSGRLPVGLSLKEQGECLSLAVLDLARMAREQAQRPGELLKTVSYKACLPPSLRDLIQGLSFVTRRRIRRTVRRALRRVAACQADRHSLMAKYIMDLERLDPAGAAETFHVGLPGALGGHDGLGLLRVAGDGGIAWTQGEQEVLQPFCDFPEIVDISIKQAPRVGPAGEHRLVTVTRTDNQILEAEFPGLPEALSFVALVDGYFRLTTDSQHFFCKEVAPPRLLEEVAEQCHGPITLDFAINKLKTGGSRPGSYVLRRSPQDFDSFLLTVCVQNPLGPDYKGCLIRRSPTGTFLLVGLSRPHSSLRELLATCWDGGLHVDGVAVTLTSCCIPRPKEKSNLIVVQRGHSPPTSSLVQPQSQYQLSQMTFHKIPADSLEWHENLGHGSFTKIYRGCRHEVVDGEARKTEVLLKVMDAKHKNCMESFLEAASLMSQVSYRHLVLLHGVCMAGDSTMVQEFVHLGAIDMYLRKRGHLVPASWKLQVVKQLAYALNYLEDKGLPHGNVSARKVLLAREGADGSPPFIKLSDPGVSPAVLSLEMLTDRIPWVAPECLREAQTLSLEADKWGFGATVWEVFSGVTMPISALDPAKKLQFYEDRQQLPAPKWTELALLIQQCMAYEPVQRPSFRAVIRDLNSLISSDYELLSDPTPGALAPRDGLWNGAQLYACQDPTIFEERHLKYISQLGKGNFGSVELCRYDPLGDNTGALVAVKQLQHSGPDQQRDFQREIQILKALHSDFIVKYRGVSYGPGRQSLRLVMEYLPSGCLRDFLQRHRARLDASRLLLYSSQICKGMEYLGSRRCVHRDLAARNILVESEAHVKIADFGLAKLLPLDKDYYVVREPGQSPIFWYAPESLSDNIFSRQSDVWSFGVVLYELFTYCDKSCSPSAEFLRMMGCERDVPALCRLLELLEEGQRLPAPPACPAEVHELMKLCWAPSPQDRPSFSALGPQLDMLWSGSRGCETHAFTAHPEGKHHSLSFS
Kind of data set: Inhibition of recombinant human catalytic GST-tagged JAK3 expressed in baculovirus at 1 uM by Z'-LYTE assay.

In a further data set the target is LTK (Homo sapiens, UniProt P29376). In words: Inhibition of recombinant human cytoplasmic GST-tagged LTK expressed in baculovirus at 1 uM by Z'-LYTE assay.
Sequence of LTK (P29376 whole entry): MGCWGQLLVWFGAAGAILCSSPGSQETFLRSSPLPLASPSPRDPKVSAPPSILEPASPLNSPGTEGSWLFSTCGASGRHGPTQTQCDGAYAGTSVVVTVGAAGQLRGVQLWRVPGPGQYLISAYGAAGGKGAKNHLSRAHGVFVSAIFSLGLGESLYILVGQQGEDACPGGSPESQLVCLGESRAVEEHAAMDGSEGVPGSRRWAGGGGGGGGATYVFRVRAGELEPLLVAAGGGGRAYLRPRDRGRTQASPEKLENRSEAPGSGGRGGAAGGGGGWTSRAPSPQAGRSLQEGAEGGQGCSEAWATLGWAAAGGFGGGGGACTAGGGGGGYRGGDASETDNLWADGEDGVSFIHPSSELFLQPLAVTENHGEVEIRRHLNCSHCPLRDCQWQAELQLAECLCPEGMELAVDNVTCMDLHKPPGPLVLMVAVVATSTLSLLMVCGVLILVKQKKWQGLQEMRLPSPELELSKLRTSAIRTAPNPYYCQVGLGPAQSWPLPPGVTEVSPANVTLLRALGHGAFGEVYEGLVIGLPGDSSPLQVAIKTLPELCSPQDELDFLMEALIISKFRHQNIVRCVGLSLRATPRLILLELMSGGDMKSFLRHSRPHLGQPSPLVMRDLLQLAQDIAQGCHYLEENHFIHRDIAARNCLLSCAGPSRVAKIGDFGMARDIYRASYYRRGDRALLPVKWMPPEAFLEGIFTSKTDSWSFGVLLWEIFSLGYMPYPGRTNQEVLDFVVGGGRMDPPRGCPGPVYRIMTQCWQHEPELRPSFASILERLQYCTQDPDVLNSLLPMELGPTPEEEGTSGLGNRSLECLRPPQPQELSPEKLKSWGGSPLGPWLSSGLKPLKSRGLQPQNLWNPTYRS
For another data set, the target named is ERBB4 (Homo sapiens, UniProt Q15303). Kind of data set: Inhibition of recombinant human cytoplasmic GST-tagged ERBB4 expressed in baculovirus at 1 uM by Z'-LYTE assay.
For the next data set, the target named is T4, TEC (Homo sapiens, UniProt P42680).
T4 sequence (P42680 whole entry): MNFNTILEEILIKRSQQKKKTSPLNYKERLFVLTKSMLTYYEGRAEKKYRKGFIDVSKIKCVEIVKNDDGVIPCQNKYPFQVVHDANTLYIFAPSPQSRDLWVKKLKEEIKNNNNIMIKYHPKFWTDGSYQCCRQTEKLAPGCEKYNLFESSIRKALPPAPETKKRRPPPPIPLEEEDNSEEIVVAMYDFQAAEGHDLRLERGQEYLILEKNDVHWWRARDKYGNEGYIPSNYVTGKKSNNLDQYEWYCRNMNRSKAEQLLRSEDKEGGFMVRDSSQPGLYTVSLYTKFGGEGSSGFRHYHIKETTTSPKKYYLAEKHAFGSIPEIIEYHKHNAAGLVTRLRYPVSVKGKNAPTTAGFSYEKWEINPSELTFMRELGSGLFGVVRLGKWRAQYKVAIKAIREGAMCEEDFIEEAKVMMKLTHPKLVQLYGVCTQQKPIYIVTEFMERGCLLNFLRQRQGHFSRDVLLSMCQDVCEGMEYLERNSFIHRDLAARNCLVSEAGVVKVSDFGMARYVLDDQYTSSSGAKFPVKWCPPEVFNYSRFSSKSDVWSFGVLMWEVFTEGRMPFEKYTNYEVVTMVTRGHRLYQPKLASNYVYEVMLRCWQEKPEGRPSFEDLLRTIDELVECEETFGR
In words: Inhibition of recombinant human cytoplasmic full length His-tagged TEC expressed in baculovirus at 1 uM by Z'-LYTE assay.

Data set [5] concerns the target T1, Tyrosine-protein kinase BTK. In words: Inhibition of human recombinant C-terminal polyhistidine tagged BTK (1 to 659 residues)-mediated synthetic peptide substrate phosphorylation expressed in baculovirus-infected insect cells.
The target of another data set is EGFR (Homo sapiens, UniProt P00533). In words: Inhibition of recombinant human cytoplasmic GST-tagged EGFR expressed in baculovirus at 1 uM by Z'-LYTE assay.
Sequence of EGFR (P00533 whole entry): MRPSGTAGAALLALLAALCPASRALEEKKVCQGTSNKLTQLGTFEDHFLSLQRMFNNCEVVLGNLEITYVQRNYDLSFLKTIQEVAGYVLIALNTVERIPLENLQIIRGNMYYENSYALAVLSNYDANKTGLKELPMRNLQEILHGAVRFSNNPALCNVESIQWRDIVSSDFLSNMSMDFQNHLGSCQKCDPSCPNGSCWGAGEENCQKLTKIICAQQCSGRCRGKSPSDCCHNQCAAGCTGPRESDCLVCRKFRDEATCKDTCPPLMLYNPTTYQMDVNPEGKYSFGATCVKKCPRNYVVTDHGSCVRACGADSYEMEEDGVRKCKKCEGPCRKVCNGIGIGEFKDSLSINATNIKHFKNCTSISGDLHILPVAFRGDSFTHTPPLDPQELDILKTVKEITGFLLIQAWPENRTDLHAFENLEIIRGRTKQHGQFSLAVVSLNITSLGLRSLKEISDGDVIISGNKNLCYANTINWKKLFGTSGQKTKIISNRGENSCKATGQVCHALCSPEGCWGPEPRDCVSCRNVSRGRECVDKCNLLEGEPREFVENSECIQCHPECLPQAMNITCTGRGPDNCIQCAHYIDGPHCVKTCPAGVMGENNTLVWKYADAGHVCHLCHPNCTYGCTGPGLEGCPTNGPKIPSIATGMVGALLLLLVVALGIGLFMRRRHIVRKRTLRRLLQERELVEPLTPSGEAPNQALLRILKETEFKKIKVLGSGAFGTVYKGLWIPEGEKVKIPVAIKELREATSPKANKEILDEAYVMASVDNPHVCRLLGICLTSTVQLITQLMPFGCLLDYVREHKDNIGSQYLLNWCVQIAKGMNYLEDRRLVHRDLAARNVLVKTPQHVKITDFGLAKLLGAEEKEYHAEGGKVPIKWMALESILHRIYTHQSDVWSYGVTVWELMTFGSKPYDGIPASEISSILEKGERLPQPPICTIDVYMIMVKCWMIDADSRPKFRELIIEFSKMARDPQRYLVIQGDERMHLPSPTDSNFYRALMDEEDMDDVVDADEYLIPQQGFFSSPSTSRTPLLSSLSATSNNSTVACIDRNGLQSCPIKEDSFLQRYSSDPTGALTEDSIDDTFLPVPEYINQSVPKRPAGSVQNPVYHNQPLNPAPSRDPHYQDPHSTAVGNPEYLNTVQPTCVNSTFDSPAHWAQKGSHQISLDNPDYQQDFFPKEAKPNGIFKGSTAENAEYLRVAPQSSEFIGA
A further data set concerns the target BMX (Homo sapiens, UniProt P51813). In words: Inhibition of cytoplasmic recombinant human full length His-tagged BMX expressed in baculovirus at 1 uM by Z'-LYTE assay.
The target in data set [6] is T1, Tyrosine-protein kinase BTK. This is another data set of the same source.
Description: Inhibition of BTK in human whole blood derived-basophils assessed as suppression of IgE mediated-FcepsilonR ligation-stimulated CD63 expression
Data set [7] can be described thus: Kinetic solubility of the compound. The format is physicochemical. As to conditions: read-out: Kinetic_solubility.

≈ marks a conversion by molar mass, not a printed value.

T1 sequence (Q06187 whole entry): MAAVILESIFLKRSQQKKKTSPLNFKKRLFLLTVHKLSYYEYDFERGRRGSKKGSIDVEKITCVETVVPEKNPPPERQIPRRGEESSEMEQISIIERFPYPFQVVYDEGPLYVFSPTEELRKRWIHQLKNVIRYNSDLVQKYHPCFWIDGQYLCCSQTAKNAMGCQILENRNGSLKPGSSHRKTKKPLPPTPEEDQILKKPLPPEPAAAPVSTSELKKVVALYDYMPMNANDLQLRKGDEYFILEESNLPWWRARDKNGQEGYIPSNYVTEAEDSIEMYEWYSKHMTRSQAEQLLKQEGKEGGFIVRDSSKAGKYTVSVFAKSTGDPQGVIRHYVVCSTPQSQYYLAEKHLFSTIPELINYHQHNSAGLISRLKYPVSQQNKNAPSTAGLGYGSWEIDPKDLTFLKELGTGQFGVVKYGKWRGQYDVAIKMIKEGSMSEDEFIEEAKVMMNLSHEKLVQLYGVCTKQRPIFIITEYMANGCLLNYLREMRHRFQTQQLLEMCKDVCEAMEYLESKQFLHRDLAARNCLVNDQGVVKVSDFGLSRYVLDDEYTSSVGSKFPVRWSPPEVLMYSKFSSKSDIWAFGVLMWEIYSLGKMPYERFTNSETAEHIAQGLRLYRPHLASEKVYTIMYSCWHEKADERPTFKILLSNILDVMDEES
Sequence of ERBB2 (P04626 whole entry): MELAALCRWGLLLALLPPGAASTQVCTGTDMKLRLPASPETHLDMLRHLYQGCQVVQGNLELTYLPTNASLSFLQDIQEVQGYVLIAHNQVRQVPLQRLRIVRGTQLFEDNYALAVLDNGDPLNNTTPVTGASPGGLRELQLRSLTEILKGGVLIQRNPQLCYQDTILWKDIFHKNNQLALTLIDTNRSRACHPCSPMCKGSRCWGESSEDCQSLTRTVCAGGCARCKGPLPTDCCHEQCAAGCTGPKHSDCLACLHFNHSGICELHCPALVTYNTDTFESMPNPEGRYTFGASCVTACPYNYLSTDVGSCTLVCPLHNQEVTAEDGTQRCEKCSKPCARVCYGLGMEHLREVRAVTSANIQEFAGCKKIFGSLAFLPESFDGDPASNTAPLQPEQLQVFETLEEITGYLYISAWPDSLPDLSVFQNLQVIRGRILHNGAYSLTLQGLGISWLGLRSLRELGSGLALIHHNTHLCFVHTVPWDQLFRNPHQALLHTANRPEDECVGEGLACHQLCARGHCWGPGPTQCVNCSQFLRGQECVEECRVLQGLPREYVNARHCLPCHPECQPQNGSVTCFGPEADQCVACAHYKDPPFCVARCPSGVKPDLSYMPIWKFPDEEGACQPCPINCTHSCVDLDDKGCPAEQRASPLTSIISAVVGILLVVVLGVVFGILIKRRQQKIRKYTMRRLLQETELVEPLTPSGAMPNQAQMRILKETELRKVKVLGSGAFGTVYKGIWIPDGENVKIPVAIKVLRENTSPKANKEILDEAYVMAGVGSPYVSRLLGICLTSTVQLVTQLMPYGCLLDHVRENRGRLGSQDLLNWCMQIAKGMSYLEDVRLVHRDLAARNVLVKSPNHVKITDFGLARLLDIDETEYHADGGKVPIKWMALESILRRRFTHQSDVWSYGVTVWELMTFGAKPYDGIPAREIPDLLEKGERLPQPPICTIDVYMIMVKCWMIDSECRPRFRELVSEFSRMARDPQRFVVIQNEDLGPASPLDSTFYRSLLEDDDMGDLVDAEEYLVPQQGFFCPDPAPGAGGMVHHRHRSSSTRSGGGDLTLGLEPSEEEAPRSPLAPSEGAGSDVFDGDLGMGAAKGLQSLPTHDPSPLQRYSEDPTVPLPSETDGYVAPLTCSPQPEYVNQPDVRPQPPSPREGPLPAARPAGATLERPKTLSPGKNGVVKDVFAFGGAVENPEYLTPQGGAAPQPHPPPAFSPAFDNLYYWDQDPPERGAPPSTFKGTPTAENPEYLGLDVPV
Description for in vitro: Efflux ratio of permeability in MDCK1 cells

As for `C[C@H]1CN(C2COC2)CCN1c1ccc(Nc2cc(-c3ccnc(N4CCn5c(cc6c5CC(C)(C)C6)C4=O)c3CO)nn(C)c2=O)nc1`, the Papp A→B in [1] amounted to 17.3 ×10⁻⁶ cm/s. Further, the CLhep predicted at 1 µM was 11 mL/min/kg in data set [2] and 13 mL/min/kg in data set [3]. Moreover, the concentration for half-maximal inhibition (IC50) – broadly, the concentration that inhibits the measured activity by half – in [4] worked out at 16.1 nM. Further, in the data set “physchem”, the pH-dependent lipophilicity (logD) (as a rule, the decadic logarithm of the distribution of all forms, ionised or not, between an organic phase and buffer at a given pH) amounted to 3.7. Besides, the efflux ratio (as a rule, the permeability from basolateral to apical divided by that in the opposite direction, in the common usage) in the data set “in vitro” is 0.9.
Turning to `C=CC(=O)N1CCC[C@@H](n2nc(-c3ccc(Oc4ccccc4)cc3)c3c(N)ncnc32)C1` [IBRUTINIB], the inhibition (as a rule, the relative decrease from the control value, in per cent) at 1 µM on ERBB2 stood at 91%; against TXK, 93%; on BLK, 102%; on JAK3, 80%; at LTK, 81%; on ERBB4, 93%. Also, the inhibition at 1 µM at TEC stood at 100%.
Turning to `CC[C@H]1CN(C2COC2)CCN1c1ccc(Nc2cc(-c3ccnc(N4CCn5c(cc6c5CC(C)(C)C6)C4=O)c3CO)cn(C)c2=O)nc1`, the Ki (commonly a measure of affinity in units of concentration, obtained from inhibition or displacement) in [5] was 0.96 nM. Moreover, in data set [1], the Papp A→B is 9.5 ×10⁻⁶ cm/s. The CLhep predicted at 1 µM in [2] was 12 mL/min/kg; in data set [3], 16 mL/min/kg. Further, the midpoint of inhibition in data set [4], the IC50, lay at 15.9 nM. Also, in the data set “physchem”, the logD came out at 3.6. The efflux ratio in “in vitro” was 0.9.
Regarding `C[C@@H]1CN(c2ccc(Nc3cc(-c4ccnc(N5CCn6c(cc7c6CC(C)(C)C7)C5=O)c4CO)cn(C)c3=O)nc2)[C@@H](C)CN1C1COC1`, in [5], the Ki stood at 1.3 nM. The Papp A→B in [1] came to 7.2 ×10⁻⁶ cm/s. The CLhep predicted at 1 µM in [2] and in data set [3] was 12 mL/min/kg each time. In data set [4], this compound returned an IC50 of 10.2 nM. This compound returned a pH-dependent lipophilicity (logD) in “physchem” of 3.5. Moreover, in the data set “in vitro”, the efflux ratio was 0.9.
As for `CC#CC(=O)N1CC[C@@H](n2c(=O)n(-c3ccc(Oc4ccccc4)cc3)c3c(N)ncnc32)C1` [TIRABRUTINIB], the inhibition at 1 µM on ERBB2 is 7%; against TXK, 66%; at BLK, 47%; at JAK3, -7%; on EGFR, -2%; at LTK, -5%. Further, the inhibition at 1 µM at ERBB4 was found to be 28%; on TEC it was 86%.
As to `Cc1c(-c2c(F)cc(C(N)=O)c3[nH]c4c(c23)CC[C@@H](C(C)(C)O)C4)cccc1-n1c(=O)c2cccc(F)c2n(C)c1=O`, the inhibition at 1 µM is 1% on ERBB2; 80% at BMX; 81% against TXK; 82% at BLK; -2% on JAK3; 7% at EGFR. Further, the results for the inhibition at 1 µM on LTK, on ERBB4 and on TEC were 47%, 38% and 98%, respectively. Also, the results for the IC50 in data set [4] and in data set [6] were 88.3 nM and 374 nM, respectively.
For `CC#CC(=O)N1CCC[C@H]1c1nc(-c2ccc(C(=O)Nc3ccccn3)cc2)c2c(N)nccn12` [ACALABRUTINIB], the inhibition at 1 µM is 36% at ERBB2; 31% on TXK; 16% at BLK; -3% on JAK3; -1% on EGFR; 2% on LTK. Besides, the inhibition at 1 µM came out at 93% at ERBB4 and 71% on TEC.
Consider `C=CC(=O)Nc1cccc(Nc2nc(Nc3ccc(OCCOC)cc3)ncc2F)c1` [SPEBRUTINIB], for which the inhibition at 1 µM at ERBB2 was 6%; on BMX it was 99%; at TXK, 95%; at BLK it was 44%; at JAK3 it was 89%; on EGFR, 34%. Besides, the values for the inhibition at 1 µM on LTK, on ERBB4 and on TEC were 19%, 76% and 92%, respectively.
As to `C=CC(=O)N1CCC(CNc2ncnc(N)c2-c2ccc(Oc3ccccc3)cc2)CC1` [EVOBRUTINIB], the inhibition at 1 µM was 1% on ERBB2; 30% at TXK; 42% on BLK; 0% on JAK3; 1% on EGFR; -2% on LTK. Besides, the inhibition at 1 µM at ERBB4 came to 57%; at TEC it was 80%.
Take `C[C@H]1CN(C2COC2)CCN1c1cnc(Nc2cc(-c3ccnc(N4CCn5c(cc6c5CC(C)(C)C6)C4=O)c3CO)cn(C)c2=O)cn1`: in data set [5], the Ki amounted to 0.8 nM. The Papp A→B in data set [1] turned out to be 15.6 ×10⁻⁶ cm/s. Moreover, the CLhep predicted at 1 µM in data set [2] is 12 mL/min/kg; in [3], 10 mL/min/kg. The IC50 in data set [4] turned out to be 51.5 nM. Moreover, in the data set “in vitro”, the efflux ratio is 1.2.
Take `C[C@@H]1CN(C2COC2)CCN1c1ccc(Nc2cc(-c3ccnc(N4CCn5c(cc6c5CC(C)(C)C6)C4=O)c3CO)cn(C)c2=O)nc1`: the Papp A→B in data set [1] came to 7.8 ×10⁻⁶ cm/s. Also, the CLhep predicted at 1 µM in data set [2] was 15 mL/min/kg; in data set [3] it was 14 mL/min/kg. The logD in the data set “physchem” amounted to 2.8.
On to `Cn1cc(-c2cc(F)cc(N3CCn4c(cc5c4CCCC5)C3=O)c2CO)cc(Nc2ccc(N3CCN(C4COC4)CC3)cn2)c1=O`, for which the solubility kinetic in data set [7] came to 12 µM (≈ 7.85 µg/mL). Further, the CLhep predicted at 1 µM in data set [2] is 12.3 mL/min/kg. Also, the logD in the data set “physchem” was determined as 3.1.

The record behind these values is ChEMBL document CHEMBL4020831, “Discovery of GDC-0853: A Potent, Selective, and Noncovalent Bruton's Tyrosine Kinase Inhibitor in Early Clinical Development” (J Med Chem, 2018).
